Source: patent US20230304097A1, “PREDICTING CANCER RELAPSE AND TREATMENT OF CANCER DISEASES” (priority 2020, published 2023)
Entries after “also recorded” stand apart in the source; their conditions may differ.

Experiments:
[1] = system: GTS cells; assay: Drug treatment and proliferation assay (Resazurin/Alamar blue), recurrent tumor cells; assay type: cell-based, mouse
Protocol: Tumor cells (GTML, GTS and preGTS) were isolated as previously described from tumor bearing mice (Cancer Cell 2012, 21: 601-613) and cultured as neurospheres in serum-free conditions with Neurobasal (NB) media, additional B27 supplement, 100 units Penicillin and 0.1 mg/ml Streptomycin, 2 mM L-glutamine, 1:500 Antibiotic-Antimycotic, 20 ng/ml EGF and 20 ng/ml FGF-2. Human MB002 primary cell culture was obtained from Dr. Yoon Jae-Cho and cultured in serum-free conditions, 1:1 of Neurobasal Media (-vitamin A) and DMEM/F12 with Sodium Pyruvate, NEAA, HEPES, GlutaMAX, 100 units Penicillin and 0.1 mg/ml Streptomycin, B27 supplement, 20 ng/ml EGF and 20 ng/ml FGF-2, 1X LIF and 1X Heparin as previously described Clin Cancer Res 2014, 20: 912-925. Stable doxycycline-inducible SOX9wt and SOX9CPD mutant cell lines were generated as described (EMBO J 2016, 35: 2192-2212), lentiviruses were first packed in HEK293T cells by the specified pTRIPZ lentivector with the packaging plasmids, psPAX2 and pMD2.G. Supernatants containing viral particles (48 - 96 hours post transfection) were used to infect the target cells in the presence of freshly added hexadimethrine bromide ([…]). Seventy-two hours post-transfection, the cells were selected and maintained in appropriate culture medium containing puromycin (0.125 - 0.5 µg/mL).
To assess cell proliferation, 10 000 cells were plated in triplicates in 96-well plate. Proliferation was measured every 24 h for five days using Resazurin colorimetric assay. […] ThioTEPA was dissolved in DMSO and added similarly to a final concentration of 10-100 µM. Doxorubicin was dissolved in H2O and added to a final concentration of 100-120 nM. Spheres from pre-GT20 cells were treated with Cisplatin at a final concentration of 10 µM. Number of SOX9-positive cells per spheres was counted in 10 spheres in treated (Cisplatin) and untreated (DMSO) conditions. Statistical significance was calculated using a unpaired non-parametric Mann-Whitney test.

[2] = system: GTML cells; assay: Drug treatment and proliferation assay (Resazurin/Alamar blue), primary tumor cells; assay type: cell-based, mouse
Protocol: Tumor cells (GTML, GTS and preGTS) were isolated as previously described from tumor bearing mice (Cancer Cell 2012, 21: 601-613) and cultured as neurospheres in serum-free conditions with Neurobasal (NB) media, additional B27 supplement, 100 units Penicillin and 0.1 mg/ml Streptomycin, 2 mM L-glutamine, 1:500 Antibiotic-Antimycotic, 20 ng/ml EGF and 20 ng/ml FGF-2. Human MB002 primary cell culture was obtained from Dr. Yoon Jae-Cho and cultured in serum-free conditions, 1:1 of Neurobasal Media (-vitamin A) and DMEM/F12 with Sodium Pyruvate, NEAA, HEPES, GlutaMAX, 100 units Penicillin and 0.1 mg/ml Streptomycin, B27 supplement, 20 ng/ml EGF and 20 ng/ml FGF-2, 1X LIF and 1X Heparin as previously described Clin Cancer Res 2014, 20: 912-925. […]
To assess cell proliferation, 10 000 cells were plated in triplicates in 96-well plate. Proliferation was measured every 24 h for five days using Resazurin colorimetric assay. […] Number of SOX9-positive cells per spheres was counted in 10 spheres in treated (Cisplatin) and untreated (DMSO) conditions. Statistical significance was calculated using a unpaired non-parametric Mann-Whitney test.

[3] = in children and in adults; cited from earlier work
[4] = system: GTML2 and GTML3 cerebellar allografts; assay: Survival of Nude mice allografted with GTML cell lines after dox diet (minimal residual disease); assay type: in vivo, mouse; conditions: 7 days of dox treatment
Protocol: Injections of tumor cells into mouse brains were performed as thoroughly described elsewhere (Cancer Cell 2016, 29: 311-323; Cancer Cell 2012, 21: 601-613) and as follows. For allograft and in vivo transplantation studies, adult Nude mice were anesthetized and cerebellar allografts generated by injection of 100,000 cells into the cerebellum. Mice were monitored until phenotypic presentation of a brain tumor, at which point they were euthanized. At sacrifice, whole brains were excised and biopsies taken for experimental procedures. PDX models used included BT084 (metastatic SHH MB established in Dr. Till Milde’s lab, Heidelberg, Germany), Med-211FH, Med-411FH (metastatic Group 3 MBs established in Dr. Jim Olson’s lab, Seattle, USA) and ICb-1572MB (metastatic Group 3 MB established in Dr. Xiaonan Li’s lab, Houston, USA) all obtained from Dr. Robert Wechsler-Reya’s lab and used as described elsewhere (Cancer Cell 2016, 29: 311-323). Orthotopic PDX growth was studied in brain and spinal cord in NSG mice that were maintained in the animal facilities at Sanford Burnham Prebys Medical Discovery Institute (SBP) and at the Sanford Consortium for Regenerative Medicine. […]
All animal experiments were conducted once. Animal survival was graphically shown as a Kaplan Meier curve, made and assessed using GraphPad Prism 7 software. The p-value for survival curves is calculated using a LogRank test.

[5] = system: GTML-pSOX9-GFP cells; assay: FACS quantification of GFP (SOX9)-positive cells after cisplatin treatment; assay type: cell-based, mouse; conditions: 24 h treatment
Protocol: Tumor burdened GTML;SOX9-eGFP mice were sacrificed and tumors dissociated, cells cultured as we described above. Cells were harvested, accutased and filtered with 30 µm cell strainer, then sorted for GFP-positive (SOX9) cells (488_FITC-A) and GFP-negative cell population. For cisplatin treatment experiment, cells were treated with cisplatin 24 h before cell sorting. The BD FACSMelody was used for sorting and quantifying in this experiment. MB002-pSOX9-GFP cells were dissociated using accutase and sorted for GFP expression (488_FITC-A). The BD FACSarialll was used for this experiment and it was analyzed using BD FACSDiVa version 8.0.

[6] = system: pre-GT20 cells; assay: Cisplatin treatment of tumor sphere cultures, SOX9 staining and cell counts; assay type: cell-based, mouse; conditions: pre-GTS tumor spheres, 10 µM, 72 h in culture
Protocol: Brains were fixed in 4% PFA and embedded in paraffin block. preGT20 sphere cultures were fixed in 4 % PFA for a minimum of 12 hours at 4° C. and then embedded in HistoGel followed by paraffin embedding. 6-7 µm sections of paraffin-embedded tissue were used for all staining. The complete protocol for the IHC was described previously (Genes & development 2010, 24: 1059-1072).
To assess cell proliferation, 10 000 cells were plated in triplicates in 96-well plate. Proliferation was measured every 24 h for five days using Resazurin colorimetric assay. The MGMT inhibitor Lomeguatrib was dissolved in DMSO and added to cells 24 h post cell plating to a final concentration of 20 µM. ThioTEPA was dissolved in DMSO and added similarly to a final concentration of 10-100 µM. Doxorubicin was dissolved in H2O and added to a final concentration of 100-120 nM. Spheres from pre-GT20 cells were treated with Cisplatin at a final concentration of 10 µM. Number of SOX9-positive cells per spheres was counted in 10 spheres in treated (Cisplatin) and untreated (DMSO) conditions. Statistical significance was calculated using a unpaired non-parametric Mann-Whitney test.

Structure (SMILES): COc1cccc2c1C(=O)c1c(O)c3c(c(O)c1C2=O)C[C@@](O)(C(=O)CO)C[C@@H]3O[C@H]1C[C@H](N)[C@H](O)[C@H](C)O1 [doxorubicin]
- viable fGTS (forebrain recurrence) cells ([1]; 200 nM, 72 h): completely depleted
- viable hGTS (hindbrain recurrence) cells ([1]; 200 nM, 72 h): nearly half of the cells were still viable
- viable GTML cells ([2]; 200 nM, 72 h): nearly half of the cells were still viable

Structure (SMILES): COc1cc2ncnc(Nc3ccc(F)c(Cl)c3)c2cc1OCCCN1CCOCC1 [Gefitinib]
- specificity for targeting forebrain GTS cells ([1]; data not shown): not specific for targeting forebrain GTS cells

Structure (SMILES): CC(C)[C@H](N)C(=O)OCC(CO)OCn1cnc2c(=O)nc(N)[nH]c21 (stereo partly drawn) [ValGCV, valganciclovir]
- blood brain barrier penetration [3]: penetrates the BBB well
- concentration in the cerebrospinal fluid (CSF) [3]: high concentrations

Structure (SMILES): Nc1nc(OCc2cc(Br)cs2)c2[nH]cnc2n1 [Lomeguatrib]
- proliferation of GTS cells, combination with ThioTEPA ([1]; 10 µM Lomeguatrib added to ThioTEPA (10, 100 µM), 72 h): decreased proliferation of GTS tumor cells even further; also recorded: significantly decreases proliferation
- proliferation of GTS cells ([1]; 20 µM, 24, 48 and 72 h, GT20 and GT21 cell lines): significantly decreased proliferation
- proliferation of GTML cells ([2]; 20 µM, 24, 48 and 72 h, GTML3 and GTML13 cell lines): did not show any efficacy

Structure (SMILES): C[C@H]1c2cccc(O)c2C(=O)C2=C(O)[C@]3(O)C(=O)C(C(N)=O)=C(O)[C@@H](N(C)C)[C@@H]3[C@@H](O)[C@@H]21 [dox, doxycycline hyclate]
- overall survival, GTML2 allograft [4]: 16.5 weeks
- overall survival, GTML3 allograft [4]: 9 weeks

Structure (SMILES): N.N.[Cl][Pt][Cl] [cisplatin, Cisplatin]
- number of SOX9-positive cells compared to DMSO control ([5]; FACS of GFP-positive cells): increases the number of SOX9-positive cells
- SOX9-positive cells ([5]; GFP-positive cells by FACS, increase from 2.4% (DMSO control)): 8.6%
- cell survival and apoptotic cell death [6]: decreased cell survival and massive apoptotic cell death
- number of SOX9-positive cells surviving the treatment ([6]; vs DMSO): significant upregulation and increase in the number of SOX9-positive cells
